# Literature values as cited in US20140212515A1, “COMPOSITION AND METHODS FOR OPTIMIZING HEALTH OF CANCER PATIENTS BY THE ADMINISTRATION OF SODIUM SELENITE AND VITAMIN K3” (priority 2013, published 2014).
# Tested on: rat pancreatic cancer cells
smiles,measurement,value
"CC1=CC(=O)c2ccccc2C1=O [Menadione, 2-Methyl-1,4-Napthoquinone]",proliferation of rat pancreatic cancer cells,inhibit the proliferation
